Experimental data as given in paper PMC7044277 (Nature Communications, 2020).
“And” between values parts separate entries of the source, which are not always exact repeats. Equal entries are not always repeated.

Columns and labels:
Assay type in all cases: cell-based
320 non-olfactory GPCRs [1] = target: T1, 320 non-olfactory GPCRs (Homo sapiens, UniProt P51677)
T1 construct: expressed in transfected cells; host or cells: HTLA cells

320 non-olfactory GPCRs [2] = target: 320 non-olfactory GPCRs (Homo sapiens, UniProt P41146); details: receptor OPRL1; replicate values, Fig_4g
Sequence of 320 non-olfactory GPCRs (Homo sapiens, UniProt P41146) (P41146 whole entry): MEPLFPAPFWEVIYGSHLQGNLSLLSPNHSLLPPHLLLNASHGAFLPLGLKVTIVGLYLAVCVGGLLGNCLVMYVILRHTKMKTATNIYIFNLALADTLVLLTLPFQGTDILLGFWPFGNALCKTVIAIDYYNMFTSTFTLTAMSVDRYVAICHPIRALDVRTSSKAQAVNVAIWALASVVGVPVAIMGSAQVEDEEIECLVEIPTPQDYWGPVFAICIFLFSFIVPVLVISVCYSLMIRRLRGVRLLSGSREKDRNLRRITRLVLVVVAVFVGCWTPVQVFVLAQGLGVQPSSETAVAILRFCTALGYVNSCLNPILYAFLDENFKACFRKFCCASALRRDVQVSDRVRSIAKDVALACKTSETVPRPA

320 non-olfactory GPCRs [3] = target: T2, 320 non-olfactory GPCRs (Homo sapiens, UniProt P08173)
T2 construct: expressed in transfected cells; host or cells: HTLA cells
T2 sequence (P08173 whole entry): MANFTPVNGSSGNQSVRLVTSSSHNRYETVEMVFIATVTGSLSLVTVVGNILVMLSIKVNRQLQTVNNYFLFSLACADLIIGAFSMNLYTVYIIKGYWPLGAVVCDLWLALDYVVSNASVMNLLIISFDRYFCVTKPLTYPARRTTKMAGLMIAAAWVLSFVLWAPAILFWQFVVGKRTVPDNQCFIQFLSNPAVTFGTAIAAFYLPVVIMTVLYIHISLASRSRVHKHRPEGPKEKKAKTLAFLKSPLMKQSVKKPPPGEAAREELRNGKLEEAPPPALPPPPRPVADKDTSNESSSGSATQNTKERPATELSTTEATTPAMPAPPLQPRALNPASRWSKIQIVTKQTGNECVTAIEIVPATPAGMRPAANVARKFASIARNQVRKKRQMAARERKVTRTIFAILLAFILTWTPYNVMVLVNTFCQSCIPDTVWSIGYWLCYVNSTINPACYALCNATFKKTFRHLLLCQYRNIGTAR

320 non-olfactory GPCRs [4] = target: 320 non-olfactory GPCRs (Homo sapiens, UniProt P07550)
Sequence of 320 non-olfactory GPCRs (Homo sapiens, UniProt P07550) (P07550 whole entry): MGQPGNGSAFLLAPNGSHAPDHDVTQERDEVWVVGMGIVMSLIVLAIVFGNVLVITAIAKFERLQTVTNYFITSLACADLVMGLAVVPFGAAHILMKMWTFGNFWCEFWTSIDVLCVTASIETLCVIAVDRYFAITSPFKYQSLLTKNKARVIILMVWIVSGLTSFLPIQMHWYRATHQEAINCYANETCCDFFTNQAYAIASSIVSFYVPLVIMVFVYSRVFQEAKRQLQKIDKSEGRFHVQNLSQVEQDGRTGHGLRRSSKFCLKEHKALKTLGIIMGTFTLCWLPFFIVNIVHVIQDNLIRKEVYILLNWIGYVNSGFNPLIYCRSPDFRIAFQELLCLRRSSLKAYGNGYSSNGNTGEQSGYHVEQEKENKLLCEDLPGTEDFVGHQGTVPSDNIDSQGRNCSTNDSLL
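Wherever Fold of Basal is given: compound tested at 1 µM final concentration.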
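Wherever GPCRome agonism screen response is given: fold over basal response of each receptor without drug.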

T1 sequence (P51677 whole entry): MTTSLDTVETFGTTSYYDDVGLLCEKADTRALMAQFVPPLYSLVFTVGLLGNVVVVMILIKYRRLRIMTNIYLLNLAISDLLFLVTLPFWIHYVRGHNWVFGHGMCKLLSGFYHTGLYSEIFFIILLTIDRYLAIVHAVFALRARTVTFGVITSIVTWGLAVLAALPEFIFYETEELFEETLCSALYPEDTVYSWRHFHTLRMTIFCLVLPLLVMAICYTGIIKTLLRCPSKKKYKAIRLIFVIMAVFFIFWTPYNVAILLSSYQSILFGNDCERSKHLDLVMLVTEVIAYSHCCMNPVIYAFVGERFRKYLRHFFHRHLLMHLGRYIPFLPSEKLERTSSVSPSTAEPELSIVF

CCOc1cccc2cc(C(C)NCC3(O)CCCCC3)oc12 (stereo not shown) [O4LE6]
Fold of Basal (320 non-olfactory GPCRs [1]): 1.539 and 1.182 and 0.9454 and 0.9656 | GPCRome agonism screen response (320 non-olfactory GPCRs [2]): 0.6174 and 0.5517 and 0.7699 and 0.8115 | Fold of Basal (320 non-olfactory GPCRs [3]): 0.6531 and 0.5382 and 0.5491 and 0.5885 | Fold of Basal (320 non-olfactory GPCRs [4]): 0.7944 and 1.208 and 1.018 and 0.6397
